# Publication PMC8757611, “Synthesis, biological evaluation, and molecular docking of new series of antitumor and apoptosis inducers designed as VEGFR-2 inhibitors” (Journal of Enzyme Inhibition and Medicinal Chemistry, 2022)
# Columns and labels:
# [1] = biological target: T1, VEGFR-2 kinase (Homo sapiens, UniProt P35968); assay: VEGFR-2 inhibition testing (ELISA kit); type: biochemical
# T1 construct: purchased
# Protocol: Enzyme linked immunosorbent assay (ELISA) technique was applied to human VEGFR-2 ELISA kit to calculate IC50 of all new derivatives against VEGFR-2 kinase. The antibody specific to the enzyme was planted on a 96 well microplate to which different micromolar concentrations of the positive control and the new compounds was added. […] Finally, stop solution (50 µL) was added and the reading was immediately determined at 450 nm. To get the standard curve, the concentrations used were presented on the X-axis and the corresponding absorbances were on the Y-axis.
# [2] = test system: HepG2; assay: In vitro antitumor MTT assay, HepG2; type: cell-based, human; settings: for IC50: Homo sapiens, HepG2, MTT, mean ± S.D. of three experiments
# Protocol: (§1) The antitumor assay was performed against the human cancer cell lines: HepG2, PC3, and MCF-7. The chemicals used in this test were supplied by Sigma-Aldrich with high analytical grade. National Cancer Institute (Cairo, Egypt) was the supplier of the cell lines tested which originally obtained from American Type Culture Collection (ATCC). MTT protocol was applied to quantitatively measure the antiproliferative activity of the new derivatives. In this test, the colour change is attributed to that the yellow tetrazolium bromide (MTT) is converted to formazan derivative which has purple colour. This biochemical reaction occurs only in viable cells by mitochondrial succinate dehydrogenase. The tested cells were initially cultured in RPMI-1640 medium with foetal bovine serum (10%). To the incubated cell, streptomycin (100 µg/mL) and penicillin (100 units/mL) were added in a 5% CO2 incubator at 37 °C. Then seeding of the cells was performed in a 96-well plate under 5% CO2 and at density of 1.0 × 10^4 cells/well at 37 °C for 48 h. Various non-toxic concentrations of the tested candidates were added and the cells were then incubated for further 24 h to the cells treated with the new compounds, MTT solution (20 µL at 5 mg/mL) was added, followed by 4 h incubation. One hundred microlitres of Dimethyl sulfoxide (DMSO) were added into each well to dissolve the purple formazan formed which is colorimetrically absorbed at 570 nm using a plate reader (EXL 800, USA). Finally, the percentages of cell viability was obtained as (A570 of treated samples/A570 of untreated sample) × 100.
# [3] = test system: PC3; assay: In vitro antitumor MTT assay, PC3; type: cell-based, human; settings: for IC50: Homo sapiens, PC-3, MTT, mean ± S.D. of three experiments
# Protocol: as §1
# [4] = test system: MCF-7; assay: In vitro antitumor MTT assay, MCF-7; type: cell-based, human; settings: for IC50: Homo sapiens, MCF7, MTT, mean ± S.D. of three experiments
# Protocol: as §1
# [5] = test system: WI-38; assay: Cytotoxicity against normal lung fibroblasts (MTT); type: cell-based; settings: normal human lung fibroblasts
# Protocol: as §1
# Of note, the cytotoxicity against normal human lung fibroblasts cell line (WI-38) were examined for the nine selected compounds.
# [6] = test system: human cancer cell lines HepG2, PC3, MCF-7; assay: In vitro antitumor MTT assay, panel of HepG2, PC3 and MCF-7; type: cell-based; settings: range over HepG2, PC3 and MCF-7, read-out: IC50 against human cancer cell lines
# Protocol: as §1
# [7] = biological target: FGFR; assay: Multi-kinase assay (HTRF), FGFR; type: biochemical
# Protocol: (§2) Different kinases and ATP were obtained from Sigma. The specified kinase and its substrate was incubated with compound for 5 min in buffer solution to start the enzymatic reaction; ATP was then added to the reaction mixture and was maintained for 30 min at room temperature.
# [8] = test system: VEGFR-2; parameters: method as in PMID 22153662; settings: cited from earlier work
# [9] = test system: HepG2; assay: Effect on cell cycle of HepG2 (PI flow cytometry); type: cell-based, human; settings: at its IC50
# Protocol: The protocol reported by Wang et al.[35] was followed to determine the effect of 15d on cell cycle of HepG2. The cancer cells (2 × 10^5 cells) were seeded and incubated in each of six-well plates for 24 h. The cells were further incubated at 37 °C and 5% CO2 after addition of foetal bovine serum (FBS, 10%). The medium was replaced by DMSO solution (1% v/v) in which 9.6 µg of compound 15d was dissolved. Well plates were then incubated for 48 h and then rinsed with cold phosphate-buffered saline (PBS), fixed with ethanol (70%) and washed again with PBS. DNA fluorochrome propidium iodide (PI) was used to stain the cells which were then kept for 15 min at 37 °C. FACS Calibre flow cytometer was used to analyse the samples.
# [10] = test system: HepG2; assay: Effect on apoptosis rate of HepG2 (Annexin V-FITC/PI); type: cell-based, human
# Protocol: Apoptosis ratio of HepG2 treated with 9.6 µg of compound 15d in comparison with untreated HepG2 cells was calculated according to the reported method using Annexin V fluorescein isothiocyanate (V-FITC)/PI kit[36].
# [11] = test system: Caspase-3; assay: Apoptotic marker level in HepG2, Caspase-3; type: cell-based, human; settings: HepG2, at IC50, 24 h; control 49.6274
# Protocol: (§3) HepG2 cells were cultured and treated with compound 15d for 24 h. after that cells were collected and washed with PBS, then were collected and lysed by adding it to the extraction buffer containing protease inhibitors (1 ml per 1 × 10^6 cells.) then the lysate was diluted immediately before the assay. Caspase-3, BAX, Bcl-2, and p53 level was measured by using Quantikine-Human active kits (R&D Systems, Inc. Minneapolis, USA) according to the manufacturer protocols.
# [12] = test system: BAX; assay: Apoptotic marker level in HepG2, BAX; type: cell-based, human; settings: HepG2, at IC50, 24 h; control 40.62
# Protocol: as §3
# [13] = test system: Bcl-2; assay: Apoptotic marker level in HepG2, Bcl-2; type: cell-based, human; settings: HepG2, at IC50, 24 h; control 5.761
# Protocol: as §3
# [14] = test system: P53; assay: Apoptotic marker level in HepG2, p53; type: cell-based, human; settings: HepG2, at IC50, 24 h; control 42.84
# Protocol: as §3
# [15] = biological target: T2, HER2 (Homo sapiens, UniProt P04626); assay: Multi-kinase assay (HTRF), HER2; type: biochemical
# T2 construct: purchased Sigma
# T2 sequence (P04626 23-1255): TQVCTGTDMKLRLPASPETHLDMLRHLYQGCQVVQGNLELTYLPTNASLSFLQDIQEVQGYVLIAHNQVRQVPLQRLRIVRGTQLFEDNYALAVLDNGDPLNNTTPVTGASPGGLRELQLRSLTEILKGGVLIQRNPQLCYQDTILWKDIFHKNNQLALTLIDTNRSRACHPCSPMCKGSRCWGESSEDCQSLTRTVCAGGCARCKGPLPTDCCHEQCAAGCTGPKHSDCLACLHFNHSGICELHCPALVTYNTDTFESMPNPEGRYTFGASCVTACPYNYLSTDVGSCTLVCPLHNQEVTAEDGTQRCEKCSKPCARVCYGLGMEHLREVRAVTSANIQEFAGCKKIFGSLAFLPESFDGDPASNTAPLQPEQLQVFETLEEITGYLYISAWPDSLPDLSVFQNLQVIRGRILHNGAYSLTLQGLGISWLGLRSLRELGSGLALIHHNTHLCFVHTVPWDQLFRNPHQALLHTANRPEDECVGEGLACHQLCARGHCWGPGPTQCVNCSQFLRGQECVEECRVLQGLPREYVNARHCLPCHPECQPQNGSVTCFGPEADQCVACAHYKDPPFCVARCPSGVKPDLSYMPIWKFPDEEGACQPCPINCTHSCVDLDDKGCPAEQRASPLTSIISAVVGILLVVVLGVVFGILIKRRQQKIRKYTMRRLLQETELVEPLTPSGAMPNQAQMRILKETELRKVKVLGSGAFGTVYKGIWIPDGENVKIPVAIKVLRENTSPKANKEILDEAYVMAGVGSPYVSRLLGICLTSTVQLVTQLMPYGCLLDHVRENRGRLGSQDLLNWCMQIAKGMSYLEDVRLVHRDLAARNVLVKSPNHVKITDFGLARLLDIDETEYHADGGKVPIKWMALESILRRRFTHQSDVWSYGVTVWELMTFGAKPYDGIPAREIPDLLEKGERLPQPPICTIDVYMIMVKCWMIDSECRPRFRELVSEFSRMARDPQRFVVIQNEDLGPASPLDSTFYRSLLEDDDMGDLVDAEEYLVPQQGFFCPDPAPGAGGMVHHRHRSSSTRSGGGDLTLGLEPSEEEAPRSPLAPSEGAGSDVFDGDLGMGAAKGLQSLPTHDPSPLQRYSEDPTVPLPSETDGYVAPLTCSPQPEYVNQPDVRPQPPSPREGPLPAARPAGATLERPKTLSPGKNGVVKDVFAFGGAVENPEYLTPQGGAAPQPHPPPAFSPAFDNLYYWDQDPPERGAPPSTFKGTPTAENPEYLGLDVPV
# Protocol: as §2
# T1 sequence (P35968 20-1356): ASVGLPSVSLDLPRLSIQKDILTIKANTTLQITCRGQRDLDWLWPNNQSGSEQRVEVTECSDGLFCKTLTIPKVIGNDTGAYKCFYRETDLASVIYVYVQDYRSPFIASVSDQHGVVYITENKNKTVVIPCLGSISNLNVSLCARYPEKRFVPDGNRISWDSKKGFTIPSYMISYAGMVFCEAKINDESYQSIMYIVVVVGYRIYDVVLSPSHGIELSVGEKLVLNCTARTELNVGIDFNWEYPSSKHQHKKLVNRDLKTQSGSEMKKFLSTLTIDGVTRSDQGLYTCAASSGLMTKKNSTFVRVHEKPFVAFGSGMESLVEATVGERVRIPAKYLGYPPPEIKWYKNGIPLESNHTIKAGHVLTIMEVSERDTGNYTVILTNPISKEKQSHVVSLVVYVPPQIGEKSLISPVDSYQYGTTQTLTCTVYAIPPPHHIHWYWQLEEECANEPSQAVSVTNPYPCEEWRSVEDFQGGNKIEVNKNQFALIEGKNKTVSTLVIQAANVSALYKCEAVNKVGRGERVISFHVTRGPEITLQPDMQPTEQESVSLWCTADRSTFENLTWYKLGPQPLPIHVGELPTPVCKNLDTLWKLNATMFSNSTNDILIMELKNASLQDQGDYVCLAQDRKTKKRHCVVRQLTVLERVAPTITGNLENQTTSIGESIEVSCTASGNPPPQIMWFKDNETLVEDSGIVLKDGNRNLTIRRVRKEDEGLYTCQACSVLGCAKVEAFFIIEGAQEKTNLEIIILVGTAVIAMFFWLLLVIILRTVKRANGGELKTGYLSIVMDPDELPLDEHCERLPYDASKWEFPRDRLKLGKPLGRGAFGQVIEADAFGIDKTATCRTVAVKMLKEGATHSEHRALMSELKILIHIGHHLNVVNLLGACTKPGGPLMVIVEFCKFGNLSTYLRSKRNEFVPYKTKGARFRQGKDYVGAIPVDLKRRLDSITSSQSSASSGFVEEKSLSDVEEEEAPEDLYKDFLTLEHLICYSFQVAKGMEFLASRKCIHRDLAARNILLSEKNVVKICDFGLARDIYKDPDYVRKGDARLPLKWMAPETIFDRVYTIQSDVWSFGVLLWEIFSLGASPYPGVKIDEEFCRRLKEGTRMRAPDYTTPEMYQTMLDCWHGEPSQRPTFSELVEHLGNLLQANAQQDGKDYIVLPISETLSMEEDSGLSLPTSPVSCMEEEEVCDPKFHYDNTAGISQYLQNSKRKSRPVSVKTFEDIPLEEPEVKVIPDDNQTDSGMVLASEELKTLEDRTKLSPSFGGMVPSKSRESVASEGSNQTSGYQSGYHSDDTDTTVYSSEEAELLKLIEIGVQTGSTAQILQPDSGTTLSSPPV
IC50 [1] [µM],IC50 [2] [µM],IC50 [3] [µM],IC50 [4] [µM],melting point [°C],SMILES,IC50 [5] [µM],further results
0.0671 ± 0.00107,41.5 ± 3.6,50.7 ± 4.36,58.3 ± 4.87,236 to 237,"O=C(Nc1ccccc1)Nc1ccc(Oc2nc(Cl)nc3ccccc23)cc1 [Compound 14a, 1-(4-((2-Chloroquinazolin-4-yl)oxy)phenyl)-3-phenylurea]",235 ± 2.43,–
–,12.9 ± 0.85,19.4 ± 1.34,14.5 ± 1.68,–,"CNC(=O)c1cc(Oc2ccc(NC(=O)Nc3ccc(Cl)c(C(F)(F)F)c3)cc2)ccn1 [Sorafenib, reference compound]",–,–
0.119 ± 0.00316,–,–,–,160 to 161,"O=C(Nc1ccc(Oc2ccccc2[N+](=O)[O-])cc1)c1cccnc1 [Compound 23c, N-(4–(2-Nitrophenoxy)phenyl)nicotinamide]",–,–
0.0748 ± 0.00167,153 ± 10.8,221 ± 12.9,234 ± 13.2,197 to 198,"O=C(Nc1ccc(Oc2ccccc2[N+](=O)[O-])cc1)c1ccccc1 [Compound 23a, N-(4–(2-Nitrophenoxy)phenyl)benzamide]",758.2 ± 5.15,–
0.0864 ± 0.00176,17.4 ± 1.54,25.6 ± 2.31,19.9 ± 1.79,249 to 250,"O=C(Nc1ccc(Oc2nc(Cl)nc3ccccc23)cc1)c1ccc(Cl)cc1 [Compound 15b, 4-Chloro-N-(4-((2-chloroquinazolin-4-yl)oxy)phenyl)benzamide]",233 ± 2.39,"potency relative to sorafenib potency, HepG2 ([2]; fraction of sorafenib potency): 0.74; potency relative to sorafenib potency, PC3 ([3]; fraction of sorafenib potency): 0.76; potency relative to sorafenib potency, MCF-7 ([4]; fraction of sorafenib potency): 0.73; IC50 [6]: 17.4 to 47.1 µM"
0.0652 ± 0.00136,50.4 ± 4.39,56 ± 1.9,62.7 ± 5.12,229 to 230,"O=C(Nc1ccc(Oc2nc(Cl)nc3ccccc23)cc1)c1cccc(Cl)c1 [Compound 15c, 3-Chloro-N-(4-((2-chloroquinazolin-4-yl)oxy)phenyl)benzamide]",236 ± 2.39,–
0.0696 ± 0.00116,221 ± 11.4,> 300,246 ± 13.6,219 to 220,"O=C(Nc1ccc(Oc2nc3ccccc3nc2Cl)cc1)c1cccnc1 [Compound 20d, N-(4-((3-Chloroquinoxalin-2-yl)oxy)phenyl)nicotinamide]",460.7 ± 4.04,–
–,–,–,–,–,"C#Cc1cccc(Nc2ncnc3cc(OCCOC)c(OCCOC)cc23)c1 [Erlotinib, reference compound]",–,IC50 [7]: 0.034 ± 0.00092 µM
0.114 ± 0.00283,–,–,–,264 to 265,"O=C(Nc1ccc(Oc2nc3ccccc3nc2Cl)cc1)c1ccc(Cl)cc1 [Compound 20b, 4-Chloro-N-(4-((3-chloroquinoxalin-2-yl)oxy)phenyl)benzamide]",–,–
–,14.6 ± 1.1,16.3 ± 1.1,12.4 ± 0.74,–,"COc1cccc2c1C(=O)c1c(O)c3c(c(O)c1C2=O)C[C@@](O)(C(=O)CO)C[C@@H]3O[C@H]1C[C@H](N)[C@H](O)[C@H](C)O1 [Doxorubicin, reference compound]",–,–
0.0942 ± 0.00153,–,–,–,214 to 215,"CCCCNC(=O)Nc1ccc(Oc2nc(Cl)nc3ccccc23)cc1 [Compound 14b, 1-Butyl-3-(4-((2-chloroquinazolin-4-yl)oxy)phenyl)urea]",–,–
0.107 ± 0.002,–,–,–,163 to 164,"CCCCNC(=O)Nc1ccc(Oc2ccccc2[N+](=O)[O-])cc1 [Compound 22b, 1-Butyl-3-(4-(2-nitrophenoxy)phenyl)urea]",–,–
0.0866 ± 0.00175,144 ± 9.51,157 ± 10,135 ± 9.02,243 to 244,"O=C(Nc1ccc(Oc2nc3ccccc3nc2Cl)cc1)c1cccc(Cl)c1 [Compound 20c, 3-Chloro-N-(4-((3-chloroquinoxalin-2-yl)oxy)phenyl)benzamide]",402.9 ± 3.26,–
0.06 ± 0.00145,24.1 ± 2.12,40.9 ± 3.46,33.4 ± 2.92,–,"O=C(Nc1ccc(Oc2nc(Cl)nc3ccccc23)cc1)c1cccnc1 [Compound 15d, N-(4-((2-Chloroquinazolin-4-yl)oxy)phenyl)nicotinamide]",221 ± 2.55,"cell cycle phases in which growth of HepG2 is stopped [9]: both G2/M and pre G1 phases; % Apoptosis Late ([10]; HepG2, at IC50, control 0.33): 7.13%; % Apoptosis Early ([10]; HepG2, at IC50, control 0.87): 5.33%; % Necrosis ([10]; HepG2, at IC50, control 1.17): 2.35%; Total (apoptosis and necrosis) ([10]; HepG2, at IC50, control 2.37): 14.81%; fold increase in apoptosis of HepG2 ([10]; at IC50, versus control): 10 folds; apoptosis rate of HepG2 ([10]; at IC50, control […]): 12.46%; Casp3 level [11]: 561.427 pg/mL; BAX level [12]: 395.04 pg/mL; Bcl-2 level [13]: 1.385 pg/mL; P53 level [14]: 415.027 pg/mL; IC50 [15]: 0.253 ± 0.0016 µM; IC50 [7]: 0.381 ± 0.0018 µM; IC50 [6]: 17.4 to 47.1 µM"
0.0752 ± 0.00157,73.4 ± 5.95,84.4 ± 6.68,105 ± 7.57,227 to 228,"CCCCNC(=O)Nc1ccc(Oc2nc3ccccc3nc2Cl)cc1 [Compound 19b, 1-Butyl-3-(4-((3-chloroquinoxalin-2-yl)oxy)phenyl)urea]",230 ± 2.51,–
0.0673 ± 0.00154,34.6 ± 2.82,30.3 ± 2.56,47.1 ± 3.59,244 to 245,"O=C(Nc1ccc(Oc2nc(Cl)nc3ccccc23)cc1)c1ccccc1 [Compound 15a, N-(4-((2-Chloroquinazolin-4-yl)oxy)phenyl)benzamide]",250 ± 2.51,IC50 [6]: 17.4 to 47.1 µM
0.124 ± 0.00378,–,–,–,175 to 176,"O=C(Nc1ccccc1)Nc1ccc(Oc2ccccc2[N+](=O)[O-])cc1 [Compound 22a, 1-(4-(2-Nitrophenoxy)phenyl)-3-phenylurea]",–,–
0.108 ± 0.00225,–,–,–,258 to 259,"O=C(Nc1ccc(Oc2nc3ccccc3nc2Cl)cc1)c1ccccc1 [Compound 20a, N-(4-((3-Chloroquinoxalin-2-yl)oxy)phenyl)benzamide]",–,–
0.0936 ± 0.00182,–,–,–,248 to 249,"O=C(Nc1ccccc1)Nc1ccc(Oc2nc3ccccc3nc2Cl)cc1 [Compound 19a, 1-(4-((3-Chloroquinoxalin-2-yl)oxy)phenyl)-3-phenylurea]",–,–
0.105 ± 0.0025,–,–,–,169 to 170,"O=C(Nc1ccc(Oc2ccccc2[N+](=O)[O-])cc1)c1cccc(Cl)c1 [Compound 23b, 3-Chloro-N-(4–(2-nitrophenoxy)phenyl)benzamide]",–,–
